# Residues, ends and D or L forms follow the SMILES beside them.
# How the values were obtained:
# S. aureus (NCTC 10788) = experiment: Antimicrobial susceptibility assay (MIC/MBC); format: cell-based, Staphylococcus aureus; details: for MIC: MHB, 37 °C, 20 h
# Protocol: (§1) Six bacteria were tested in this experiment to detect the antimicrobial effects of crabrolin and its derivatives, including S. aureus (NCTC 10788), MRSA (NCTC 12493), E. coli (ATCC 8739), K. pneumoniae (ATCC 43816), E. faecium (NTCC-12697), and P. aeruginosa (ATCC 9027). The tested bacteria were cultured in Mueller Hinton broth medium (MHB) with norfloxacin (20 mg/L) as a positive control. All bacteria were incubated at 37 °C overnight and diluted to 5 × 10^5 CFU/mL before treating with the peptides. Stock solutions of 51,200 µM peptides were prepared in phosphate-buffered saline (PBS) and further diluted by a factor of two to 100 µM. Next, 1 µL of each peptide solution was mixed with 99 µL of bacterial subculture in a 96-well plate, and the plate was incubated at 37 °C for 20 h. After culturing, the absorbance of each well in the 96-well plate was analyzed at 550 nm using a Synergy HT plate reader (BioliseBioTek, Winooski, VT, USA). […] Starting with the MIC value, 10 µL of the solution from each well was dripped onto Mueller Hinton agar (MHA) plates. The plates were cultured at 37 °C for 20 h. After culturing, the lowest concentration with no colony growth was regarded as the MBC.
# E. coli (ATCC 8739) = experiment: Antimicrobial susceptibility assay (MIC/MBC); format: cell-based, Escherichia coli; details: for MIC: MHB, 37 °C, 20 h
# Protocol: as §1
# MRSA (NCTC 12493) = experiment: Antimicrobial susceptibility assay (MIC/MBC); format: cell-based, methicillin-resistant Staphylococcus aureus; details: for MIC: MHB, 37 °C, 20 h
# Protocol: as §1
# [1] = tested on: K. pneumoniae (ATCC 43816); experiment: Antimicrobial susceptibility assay (MIC/MBC); format: cell-based, Klebsiella pneumoniae; details: for MIC: MHB, 37 °C, 20 h
# Protocol: as §1
# E. faecium (NTCC 12697) = experiment: Antimicrobial susceptibility assay (MIC/MBC); format: cell-based, Enterococcus faecium; details: for MIC: MHB, 37 °C, 20 h
# Protocol: as §1
# [2] = tested on: P. aeruginosa (ATCC 9027); experiment: Antimicrobial susceptibility assay (MIC/MBC); format: cell-based, Pseudomonas aeruginosa; details: for MIC: MHB, 37 °C, 20 h
# Protocol: as §1
# [3] = tested on: MRSA (NCTC 12493) biofilm; format: cell-based, methicillin-resistant Staphylococcus aureus; details: for MBIC: biofilm inhibitory rate more than 90%; for MBEC: eradication rate greater than 99.9%
# Protocol: (§2) To measure the antibiofilm activity of crabrolin and its derivatives, four drug-resistant biofilm-forming strains, MRSA (NCTC 12493), K. pneumoniae (ATCC 43816), E. faecium (NTCC-12697), and P. aeruginosa (ATCC 9027), were used in this assay. Tryptic soy broth (TSB) (for the Gram-positive bacteria) and Luria–Bertani broth (LB) (for the Gram-negative bacteria) were used to culture the bacteria.
# (§3) The mass of the biofilm in this assay was detected by the crystal violet staining method. First, 100 μL of 5 × 10^5 CFU/mL bacteria was incubated with 1 μL of different peptide solutions (ranging from 51200 μM to 100 μM) for 24 h at 37 °C with 200 rpm shaking. After the biofilm formation, 100 μL of PBS was used to rinse the biofilm twice. Next, 100 µL of methanol was added to fix the biofilm, and the biofilm was then dried. Thereafter, 100 μL of 0.1% crystal violet was added and left to stain for 15 min, and then the excess crystal violet was further rinsed by PBS. After the plate had air-dried, 30% glacial acetic acid was added to each well of the plate, and the plate was shaken for 15 min before the optical density (OD) value was measured at 595 nm using a Synergy HT plate reader. The MBIC value refers to the minimum concentration at which the biofilm inhibitory rate was more than 90%.
# (§4) Different from measuring the MBIC value, to determine the MBEC value, 100 μL of the bacteria was first added to 96-well plates. After the biofilm was formed, the biofilm was rinsed with PBS twice to remove the planktonic cells, and then different concentrations of the drugs were added to the biofilm (the same as the MBIC assay). The mixture was incubated at 37 °C with shaking at 200 rpm. After 24 h of incubation, the mass of the biofilm was measured in the same way as the MBIC value, and the minimum concentration at which the eradication rate was greater than 99.9% was considered to be the MBEC value.
# [4] = tested on: K. pneumoniae (ATCC 43816) biofilm; format: cell-based, Klebsiella pneumoniae; details: for MBIC: biofilm inhibitory rate more than 90%; for MBEC: eradication rate greater than 99.9%
# Protocol: as §2, §3, §4
# [5] = tested on: E. faecium (NTCC12697) biofilm; format: cell-based, Enterococcus faecium; details: for MBIC: biofilm inhibitory rate more than 90%; for MBEC: eradication rate greater than 99.9%
# Protocol: as §2, §3, §4
# [6] = tested on: P. aeruginosa (ATCC 9027) biofilm; format: cell-based, Pseudomonas aeruginosa; details: for MBIC: biofilm inhibitory rate more than 90%; for MBEC: eradication rate greater than 99.9%
# Protocol: as §2, §3, §4
# [7] = tested on: human breast cancer cell line MCF-7; experiment: Anti-proliferative assay (MTT); format: cell-based; details: MCF-7, MTT, 24 h
# Protocol: (§5) The human non-small-cell lung cancer line, H838, the human prostate carcinoma cell line, PC-3, the human glioblastoma astrocytoma, U251MG, the human breast cancer cell line, MCF-7, the human colorectal carcinoma cell line, HCT116, and the human keratinocyte cell line, HaCaT, were used to detect the anti-proliferative effects of the crabrolin and its derivatives in vitro. A total of 8000 cells were seeded in each well of a 96-well plate. After the cells had adhered to the wall, the cells were starved for 4 h. After the starvation, the cells were incubated with different concentrations of the drugs, ranging from 100 µM to 1 nM, for 24 h, with 0.1% Triton X-100 used as a positive control. Next, 10 µL of MTT (3-(4,5-dimethylthiazol-2-yl)-2,5-diphenyltetrazolium bromide) solution (5 mg/mL) was added to each well of the 96-well plate. After 2 h of incubation, 100 μL of DMSO-superseded medium was added to each well to dissolve the formazan crystals. Finally, the absorbance was detected using a Synergy HT plate reader at 570 nm.
# [8] = tested on: human colorectal carcinoma cell line HCT-116; experiment: Anti-proliferative assay (MTT); format: cell-based; details: HCT-116, MTT, 24 h
# Protocol: as §5
# [9] = tested on: human glioblastoma astrocytoma U251MG; experiment: Anti-proliferative assay (MTT); format: cell-based; details: 24 h
# Protocol: as §5
# [10] = tested on: human keratinocyte cell line HaCaT; experiment: Anti-proliferative assay (MTT); format: cell-based; details: HaCaT (normal keratinocytes), 24 h
# Protocol: as §5
# [11] = tested on: human non-small-cell lung cancer line H838; experiment: Anti-proliferative assay (MTT); format: cell-based; details: 24 h
# Protocol: as §5
# [12] = tested on: human prostate carcinoma cell line PC-3; experiment: Anti-proliferative assay (MTT); format: cell-based; details: PC3, MTT, 24 h
# Protocol: as §5
# Hemolysis assay = format: cell-based, horse; details: horse, erythrocytes (2% suspension); at the peptide's maximum MIC; relative to Triton X-100; read-out: Hemolysis under the Maximum MIC
# Protocol: (§6) According to the procedures described in detail in a previous study, the debris and impurities of the erythrocytes were washed with PBS in advance to yield 2% of the erythrocyte suspension, and the drug concentration was diluted from 1024 µM to 2 µM with PBS [53]. The same amounts of the drug and the erythrocyte suspension were mixed and cultured at 37 °C for 2 h; 0.1% Triton X-100 (Sigma-Aldrich, St. Louis, MO, USA) was prepared as a positive control, and PBS was prepared as a negative control. After the incubation, the supernatant was transferred to a 96-well plate and then detected using a Synergy HT plate reader at 570 nm.
# horse erythrocytes = experiment: Hemolysis assay; format: cell-based
# Protocol: as §6
Structure (SMILES),MBC (S. aureus (NCTC 10788)) [µM],MIC (S. aureus (NCTC 10788)) [µM],MBC (E. coli (ATCC 8739)) [µM],MIC (E. coli (ATCC 8739)) [µM],MBC (MRSA (NCTC 12493)) [µM],MIC (MRSA (NCTC 12493)) [µM],MBC [1] [µM],MIC [1] [µM],MBC (E. faecium (NTCC 12697)) [µM],MIC (E. faecium (NTCC 12697)) [µM],MBC [2] [µM],MIC [2] [µM],MBIC [3],MBEC [3],MBIC [4],MBEC [4],MBIC [5],MBEC [5],MBIC [6],MBEC [6],other results
"CC[C@H](C)[C@H](NC(=O)[C@H](CCCNC(=N)N)NC(=O)[C@@H]1CCCN1C(=O)[C@H](CC(C)C)NC(=O)[C@@H](N)Cc1ccccc1)C(=O)N[C@@H](CC(C)C)C(=O)N[C@@H](CCCNC(=N)N)C(=O)N[C@@H](CCCCN)C(=O)N[C@H](C(=O)N[C@H](C(=O)N[C@H](C(=O)N[C@@H](C)C(=O)N[C@@H](CC(C)C)C(N)=O)[C@@H](C)O)C(C)C)[C@@H](C)CC [Crabrolin-4R, FLPRILRKIVTAL-NH2] (H-FLPRILRKIVTAL-NH2)",4,2,4,4,8,4,8,8,32,16,16,16,8 µM,64 µM,16 µM,128 µM,16 µM,> 512 µM,128 µM,256 µM,"IC50 [7]: 20.3 µM; IC50 [8]: 47 µM; IC50 [9]: 25.1 µM; IC50 [10]: 35.8 µM; IC50 [11]: 11.4 µM; IC50 [12]: 18 µM; hemolysis at 2 h (Hemolysis assay): 6.18%; HC10 (10% hemolytic concentration) (horse erythrocytes; erythrocytes, 37 °C, 2 h): 62.117 µM; HC50 (50% hemolytic concentration) (horse erythrocytes; erythrocytes, 37 °C, 2 h): 216.266 µM"
"CC[C@H](C)[C@H](NC(=O)[C@H](CCCNC(=N)N)NC(=O)[C@@H]1CCCN1C(=O)[C@H](CC(C)C)NC(=O)[C@@H](N)CCCNC(=N)N)C(=O)N[C@@H](CC(C)C)C(=O)N[C@@H](CCCNC(=N)N)C(=O)N[C@@H](CCCCN)C(=O)N[C@H](C(=O)N[C@H](C(=O)N[C@@H](CCCNC(=N)N)C(=O)N[C@@H](CCCNC(=N)N)C(=O)N[C@@H](CC(C)C)C(N)=O)C(C)C)[C@@H](C)CC [Crabrolin-AR, RLPRILRKIVRRL-NH2] (H-RLPRILRKIVRRL-NH2)",8,4,4,2,8,4,16,8,32,16,16,4,8 µM,512 µM,8 µM,> 512 µM,64 µM,> 512 µM,16 µM,> 512 µM,"IC50 [7]: 32.5 µM; IC50 [8]: 29.9 µM; IC50 [9]: 52 µM; IC50 [10]: 34.9 µM; IC50 [11]: 41.3 µM; IC50 [12]: 28.8 µM; hemolysis at 2 h (Hemolysis assay): 6.63%; HC10 (10% hemolytic concentration) (horse erythrocytes; erythrocytes, 37 °C, 2 h): 59.049 µM"
"CC[C@H](C)[C@H](NC(=O)[C@H](CC(C)C)NC(=O)[C@@H]1CCCN1C(=O)[C@H](CC(C)C)NC(=O)[C@@H](N)Cc1ccccc1)C(=O)N[C@@H](CC(C)C)C(=O)N[C@@H](CCCNC(=N)N)C(=O)N[C@@H](CCCCN)C(=O)N[C@@H](CCCNC(=N)N)C(=O)N[C@H](C(=O)N[C@H](C(=O)N[C@@H](C)C(=O)N[C@@H](CC(C)C)C(N)=O)[C@@H](C)O)C(C)C [Crabrolin-9R, FLPLILRKRVTAL-NH2] (H-FLPLILRKRVTAL-NH2)",> 512,256,> 512,256,> 512,> 512,> 512,> 512,> 512,> 512,> 512,> 512,>512/>512 µM,>512/>512 µM,>512/>512 µM,>512/>512 µM,>512/>512 µM,>512/>512 µM,>512/>512 µM,>512/>512 µM,IC50 [7]: 6340 µM; IC50 [8]: 1880 µM; IC50 [9]: 1140 µM; IC50 [10]: 5850 µM; IC50 [11]: 2740 µM; IC50 [12]: 354 µM; Hemolytic activity (in words) (horse erythrocytes; 1 to 512 μM): lost its hemolytic activity

# Source: paper PMC10572522, “A Designed Analog of an Antimicrobial Peptide, Crabrolin, Exhibits Enhanced Anti-Proliferative and In Vivo Antimicrobial Activity” (International Journal of Molecular Sciences, 2023)
